# According to patent US5116602A, “Antiplaque oral compositions” (Colgate-Palmolive Company, priority 1989, dated 1992):
# Like-named read-outs stand apart in the source and are kept apart here.
# Tests used:
# [1] = system: Rat; details: cited from earlier work
# [2] = system: Actinomyces viscosus T14V; format: cell-based; details: for % Red. / Bact. Count (Log 10): Table VIII
# Text: The SIKT test is a basic microbiological test which incorporates a fixed contact time. […] The system is then neutralized to inhibit further antimicrobial activity. The surviving bacteria are enumerated using plate count methodology. The reduction in counts compared to a water control is the basis for expressing activity. A three log reduction is usually considered significant.
# [3] = oral, values reported in the literature
# [4] = Table VI, rinses, with and without Carbopol polymers
Structure (SMILES),"LD 50 (Oral, Rat) [1, 3] [mg/kg]",% Red. ([2]; concentration 0.01) [%],Bact. Count (Log 10) ([2]; concentration 0.01),% Red. ([2]; concentration 0.02) [%],Bact. Count (Log 10) ([2]; concentration 0.02),% Red. ([2]; concentration 0.04) [%],Bact. Count (Log 10) ([2]; concentration 0.04),% Red. ([2]; concentration 0.06) [%],Bact. Count (Log 10) ([2]; concentration 0.06),% Red. ([2]; concentration 0.07) [%],Bact. Count (Log 10) ([2]; concentration 0.07),% Red. ([2]; concentration 0.08) [%],Bact. Count (Log 10) ([2]; concentration 0.08),further results
CC(C)=CCC[C@](C)(O)C1CC=C(C)CC1 (stereo partly drawn) [Bisabolol],5000,,,,,,,,,,,,,
"[H]/N=C(\N/C(=N/[H])NCCCCCCNC(=N)NC(=N)Nc1ccc(Cl)cc1)Nc1ccc(Cl)cc1 [Chlorhexidine, reference compound]",,,,,,,,,,,,,,"% Reduction [2, 4]: > 99.00%; Bacterial Count (log 10) [2, 4]: 4.52 log 10"
CC(C)=CCCC(C)=CCCC(C)=CCO [Farnesol],,> 99.99,< 2.00,> 99.99,< 2.00,> 99.99,< 2.00,> 99.99,< 2.00,> 99.99,< 2.00,> 99.99,< 2.00,% Red. ([2]; concentration 0.005): 99.9%; Bact. Count (Log 10) ([2]; concentration 0.005): 3.66 Log 10; % Red. ([2]; concentration 0.0075): > 99.99%; Bact. Count (Log 10) ([2]; concentration 0.0075): 2.50 Log 10
"COC(=O)c1ccccc1O [Methyl salicylate, reference compound]",,,,,,,,,,,,,,"LD 50 (Oral, Rat) ([1]; in vivo, po): 887 mg/kg"
C=CC(C)(O)CCC=C(C)CCC=C(C)C (stereo not drawn) [Nerolidol],> 5000,,,,,,,,,,,,,
"Cc1ccc(C(C)C)c(O)c1 [Thymol, reference compound]",,0,6.67,0,6.71,0,6.23,99.99,3.93,> 99.99,< 2.00,> 99.99,< 2.00,
